According to PMC6430037 (Heliyon, 2019):
“Also recorded” adds a separate entry of the source. Structures can show the parent of a compound that is named as a salt.

Tests used:
[1] = test system: mice; conditions: cited from earlier work
[2] = test system: mice; conditions: cited from earlier work; remark: listed apart in the source
[3] = biological target: T1, 5-HT1A receptor (Rattus norvegicus, UniProt P19327); test: [3H]-8-OH-DPAT radioligand binding assay; conditions: for inhibition at 300 µM: read-out: 5-HT1A Binding Inhibition (%) [300 μM]
T1 sequence (P19327 1-422): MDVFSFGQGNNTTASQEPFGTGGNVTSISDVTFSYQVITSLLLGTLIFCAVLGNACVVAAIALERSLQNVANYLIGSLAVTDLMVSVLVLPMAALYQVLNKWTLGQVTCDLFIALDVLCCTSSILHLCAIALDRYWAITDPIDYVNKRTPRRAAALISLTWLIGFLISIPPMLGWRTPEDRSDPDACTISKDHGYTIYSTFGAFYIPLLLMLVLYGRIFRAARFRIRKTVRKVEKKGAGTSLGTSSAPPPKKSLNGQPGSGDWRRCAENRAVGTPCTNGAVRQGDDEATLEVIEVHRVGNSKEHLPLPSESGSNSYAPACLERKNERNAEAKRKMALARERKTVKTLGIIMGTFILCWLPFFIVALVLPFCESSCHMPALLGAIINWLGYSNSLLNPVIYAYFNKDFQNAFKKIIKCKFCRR

[4] = test system: BDZ-bs of the GABAA receptor; test: [3H]-FNZ radioligand binding assay; conditions: [3H]-FNZ displacement, compound at 300 μM, rat cerebral cortex membranes
[5] = biological target: μ-opioid receptor (Rattus norvegicus, UniProt P33535); test: [3H]-DAMGO radioligand binding assay; conditions: for inhibition at 300 µM: read-out: μ-opioid Binding inhibition (%) [300 μM]; for Ki: μ-opioid Ki, [3H]-DAMGO, rat forebrain membranes, Ki ± SEM, 2 determinations
[6] = test system: mice; test: Tail suspension test; type: in vivo; conditions: 30 min before
[7] = test system: mice; test: Hot plate test; type: in vivo; conditions: plate 52.5 °C; for reaction (latency) time against thermal stimulus vs VEH: 30 mg/kg i.p.
[8] = test system: mice; test: Acetic acid induced writhing test; type: in vivo; conditions: for number of writhes vs VEH: acetic acid 0.75%
[9] = test system: mice; test: Elevated plus-maze test; type: in vivo
[10] = Cell viability assay; type: cell-based, human; conditions: human, SH-SY5Y cells
[11] = PAMPA-BBB permeability assay; type: in vitro ADME; conditions: for Papp at 16 h, 50 µM: PAMPA, pH 7.4; for BBB penetration estimation Prediction: PAMPA-BBB binning by -logPe
[12] = test system: mice; test: Spontaneous locomotor activity; type: in vivo; conditions: 10 and 30 mg/kg i.p., 5 min counts
[13] = test system: mice; test: Rotarod; type: in vivo; conditions: 30 mg/kg i.p., cut-off 120 s
[14] = test system: rats; conditions: cited from earlier work
[15] = 10 mg/kg i.p., 30 min before, 5 min session

μ-opioid receptor, sequence (P33535 whole entry): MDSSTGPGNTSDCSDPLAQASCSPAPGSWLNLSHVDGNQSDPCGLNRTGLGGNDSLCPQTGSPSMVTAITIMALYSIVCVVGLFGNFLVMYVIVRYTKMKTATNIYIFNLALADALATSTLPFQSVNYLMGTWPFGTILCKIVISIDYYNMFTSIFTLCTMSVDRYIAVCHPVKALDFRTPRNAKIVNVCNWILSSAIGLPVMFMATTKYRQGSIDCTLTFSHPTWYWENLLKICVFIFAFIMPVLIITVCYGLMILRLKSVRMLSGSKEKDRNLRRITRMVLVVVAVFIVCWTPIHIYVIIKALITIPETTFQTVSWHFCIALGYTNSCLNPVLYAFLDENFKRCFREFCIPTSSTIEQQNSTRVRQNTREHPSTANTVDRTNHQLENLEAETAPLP

Compound	Ki [3] [µM]	inhibition at 300 µM [3] [%]	BDZ-bs Binding inhibition (%) [300 μM] [4]	inhibition at 300 µM [5] [%]	Ki [5] [µM]	further results
O=C(/C=C/c1c(Cl)cccc1Cl)c1ccc(O)cc1O [2,6-dichloro-2′,4′-dihydroxychalcone]	–	–	–	–	–	lethality in the yohimbine-induced mortality test [1]: enhanced the mouse lethality; head-twitches in the 5-HT induced head-twitch test [2]: significantly increased head-twitches
O=C(/C=C/c1cccc(Br)c1)c1ccc(O)cc1O [3-bromo-2′,4′-dihydroxychalcone]	–	–	–	–	–	lethality in the yohimbine-induced mortality test [1]: enhanced the mouse lethality; head-twitches in the 5-HT induced head-twitch test [2]: significantly increased head-twitches
O=C(/C=C/c1ccccc1)c1ccccc1O [Compound 2, (2E)-1-(2-hydroxyphenyl)-3-phenyl-2-propen-1-one]	71.4 ± 1.4	60 to 90	+++ (inhibition 60–90% (+++))	20 to 40	–	–
COc1ccc(C(=O)/C=C/c2ccccc2)c(O)c1 [Compound 3, (2E)-1-(2-hydroxy-4-methoxyphenyl)-3-phenyl-2-propen-1-one]	–	20 to 40	+++ (inhibition 60–90% (+++))	20 to 40	–	–
COc1ccc(O)c(C(=O)/C=C/c2ccccc2)c1 [Compound 4, (2E)-1-(2-hydroxy-5-methoxyphenyl)-3-phenyl-2-propen-1-one]	303 ± 1.2	60 to 90	+++ (inhibition 60–90% (+++))	60 to 90	54.6 ± 2.9	–
COc1cccc(O)c1C(=O)/C=C/c1ccccc1 [Compound 5, (2E)-1-(2-hydroxy-6-methoxyphenyl)-3-phenyl-2-propen-1-one]	13.3 ± 0.3	> 90	- (inhibition <20% (-))	60 to 90	26.7 ± 1.6	immobility time vs VEH ([6]; 10 mg/kg i.p.): not active
O=C(/C=C/c1ccccc1)c1cc(Cl)ccc1O [Compound 6, (2E)-1-(5-chloro-2-hydroxyphenyl)-3-phenyl-2-propen-1-one]	–	40 to 60	++ (inhibition 40–60% (++))	60 to 90	19.4 ± 3.5	reaction (latency) time against thermal stimulus vs VEH [7]: Only chalcone 12 at 30 mg/kg caused significant increases; number of writhes vs VEH ([8]; 10 mg/kg i.p.): significantly reduced
O=C(/C=C/c1ccccc1)c1cc(F)ccc1O [Compound 7, (2E)-1-(5-fluoro-2-hydroxyphenyl)-3-phenyl-2-propen-1-one]	129 ± 2.7	60 to 90	++ (inhibition 40–60% (++))	60 to 90	29.5 ± 6.6	–
O=C(/C=C/c1ccccc1)c1cc(Br)ccc1O [Compound 8, (2E)-1-(5-bromo-2-hydroxyphenyl)-3-phenyl-2-propen-1-one]	–	40 to 60	++ (inhibition 40–60% (++))	20 to 40	–	–
Cc1ccc(O)c(C(=O)/C=C/c2ccccc2)c1 [Compound 9, (2E)-1-(2-hydroxy-5-methylphenyl)-3-phenyl-2-propen-1-one]	–	40 to 60	+++ (inhibition 60–90% (+++))	60 to 90	46.3 ± 1.6	percentage of open arm entries vs VEH [9, 15]: significantly increased; percentage of time spent in open arms vs VEH [9, 15]: significantly increased; number of total arm entries vs VEH ([9]; 30 mg/kg i.p.): significantly increased; viability at 48 h, 20 µM [10]: 88.5%; Papp at 16 h, 50 µM [11]: 25.1 ×10⁻⁶ cm/s; BBB penetration estimation Prediction [11]: CNS+ (CNS+, -logPe < 5.6, high permeability); spontaneous locomotor activity vs VEH [12]: did not show significant differences
O=C(/C=C/c1ccccc1)c1cc(Br)cc(Br)c1O [Compound 10, (2E)-1-(3,5-dibromo-2-hydroxyphenyl)-3-phenyl-2-propen-1-one]	1220 ± 469	60 to 90	- (inhibition <20% (-))	60 to 90	32.5 ± 9.3	–
Cc1cc(O)c(C(=O)/C=C/c2ccccc2)cc1C [Compound 11, (2E)-1-(4,5-dimethyl-2-hydroxyphenyl)-3-phenyl-2-propen-1-one]	164 ± 1.47	60 to 90	+ (inhibition 20–40% (+))	60 to 90	29.1 ± 8.5	–
Cc1cc(C(=O)/C=C/c2ccccc2)c(O)c([N+](=O)[O-])c1 [Compound 12, (2E)-1-(5-methyl-3-nitro-2-hydroxyphenyl)-3-phenyl-2-propen-1-one]	–	< 20	+ (inhibition 20–40% (+))	> 90	10.8 ± 3.6	viability at 48 h, 20 µM [10]: 74.8%; reaction (latency) time against thermal stimulus vs VEH [7]: significant increases; also recorded: significantly increased; inhibition of constrictions compared to VEH ([8]; 3 mg/kg i.p.): 59.7%; inhibition of constrictions compared to VEH ([8]; 10 mg/kg i.p.): 62.6%; number of writhes vs VEH ([8]; 10 mg/kg i.p.): significantly reduced; inhibition of constrictions compared to VEH ([8]; 30 mg/kg i.p.): 96.1%; Papp at 16 h, 50 µM [11]: 33.9 ×10⁻⁶ cm/s; BBB penetration estimation Prediction [11]: CNS+ (CNS+, -logPe < 5.6, high permeability); spontaneous locomotor activity vs VEH [12]: None of the mice treated with chalcone 12 showed any failure in their locomotion; balance on the Rotarod [13]: did not produce neurotoxicity or motor impairment
COc1cc(C(=O)/C=C/c2ccccc2)ccc1O [Compound 13, (2E)-1-(4-hydroxy-3-methoxyphenyl)-3-phenyl-2-propen-1-one]	287.8 ± 1.9	40 to 60	++ (inhibition 40–60% (++))	40 to 60	–	–
Nc1ccc(C(=O)/C=C/c2ccccc2)cc1 [Compound 14, (2E)-1-(4-aminophenyl)-3-phenyl-2-propen-1-one]	–	40 to 60	+++ (inhibition 60–90% (+++))	60 to 90	59.4 ± 1.5	–
Cc1ccc(C(=O)/C=C/c2ccccc2)cc1 [Compound 15, (2E)-1-(4-methylphenyl)-3-phenyl-2-propen-1-one]	–	40 to 60	+++ (inhibition 60–90% (+++))	20 to 40	–	–
O=C(/C=C/c1cccc([N+](=O)[O-])c1)c1ccccc1 [Compound 16, (2E)-3-(3-nitrophenyl)-1-phenyl-2-propen-1-one]	–	40 to 60	++++ (inhibition >90% (++++))	< 20	–	number of total arm entries vs VEH [9, 15]: significantly increased
O=C(/C=C/c1ccc([N+](=O)[O-])cc1)c1ccccc1 [Compound 17, (2E)-3-(4-nitrophenyl)-1-phenyl-2-propen-1-one]	–	< 20	- (inhibition <20% (-))	20 to 40	–	–
O=C(/C=C/c1cccc(Cl)c1)c1ccccc1 [Compound 18, (2E)-3-(3-chlorophenyl)-1-phenyl-2-propen-1-one]	–	20 to 40	++ (inhibition 40–60% (++))	20 to 40	–	–
O=C(/C=C/c1ccc(Cl)cc1)c1ccccc1 [Compound 19, (2E)-3-(4-chlorophenyl)-1-phenyl-2-propen-1-one]	–	< 20	+ (inhibition 20–40% (+))	20 to 40	–	–
CN(C)c1ccc(/C=C/C(=O)c2ccccc2)cc1 [Compound 20, (2E)-3-[4-(dimethylamino)phenyl]-1-phenyl-2-propen-1-one]	59.6 ± 1.5	60 to 90	- (inhibition <20% (-))	60 to 90	23.8 ± 3.1	–
Nc1ccc(C(=O)/C=C/c2cccc([N+](=O)[O-])c2)cc1 [Compound 21, (2E)-1-(4-aminophenyl)-3-(3-nitrophenyl)-2-propen-1-one]	473 ± 7.3	60 to 90	–	40 to 60	–	–
CN(C)CCCN1c2ccccc2CCc2ccccc21 [IMP, imipramine hydrochloride, reference compound]	–	–	–	–	–	immobility time vs VEH ([6]; 30 mg/kg i.p.): significantly reduced
O=C(/C=C/c1ccc(O)c(O)c1)c1ccc(O)cc1O [butein]	–	–	–	–	–	effect in the plus-maze test [14]: anxiolytic-like effect
CN1CC[C@]23c4c5ccc(O)c4O[C@H]2[C@@H](O)C=C[C@H]3[C@H]1C5 [morphine, Morphine hydrochloride, reference compound]	–	–	–	–	–	latency time ([7]; 6 mg/kg i.p., 45 s cut-off): 42.6 s; abdominal cramps ([8]; 6 mg/kg i.p.): no abdominal cramps
